US20220306630A1, “AGONISTS OF ROR GAMMAt” (BRISTOL-MYERS SQUIBB COMPANY, priority 2019, published 2022)

target: T1, RORgT (Homo sapiens, UniProt P51449); experiment: RORgT Gal4 Luciferase Reporter Gene Assay; assay type: cell-based; settings: engineered Jurkat cells overexpressing RORgT (LBD or full length) with Gal4 Luc reporter; 18 hours at 37° C.; 40 μM to 0.67 nM; read-out: RORg_GAL4 EC50
T1 construct: Gal4 (fusion partner); expressed in transfected cells; host or cells: engineered Jurkat cells (Jurkat pEx/Gal/hRORγ CLBD/HYG pG5luc/blast)
T1 sequence (P51449 267-516): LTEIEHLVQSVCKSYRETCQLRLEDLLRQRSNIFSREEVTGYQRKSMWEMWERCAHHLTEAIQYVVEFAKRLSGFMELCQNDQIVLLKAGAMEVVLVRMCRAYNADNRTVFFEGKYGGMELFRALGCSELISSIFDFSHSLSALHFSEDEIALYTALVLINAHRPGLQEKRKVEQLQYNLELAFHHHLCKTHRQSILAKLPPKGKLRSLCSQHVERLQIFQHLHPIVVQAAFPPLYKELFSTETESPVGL
Procedure, shortened: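 Cells exposed to compound 18 hours at 37° C, then lysed for luciferase luminescence. Inhibition of constitutive activity expressed as percent reduction of signal window relative to a control compound.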

Row | SMILES | EC50
1 | COc1ccc(Oc2c(Cl)cc(NC(=O)Cc3ccc[n+]([O-])c3)cc2Cl)cc1C(C)C [Example 237] | 235 nM
2 | COc1ccc(Oc2c(Cl)ccc(C(=O)NCCNC(C)=O)c2Cl)cc1C(C)C [Example 221] | 560 nM
3 | CC(c1cc(F)cc(Oc2c(Cl)ccc(C(=O)NCc3ccc(S(N)(=O)=O)cc3)c2Cl)c1)C(F)(F)F (centres unmarked) [Example 355] | 16 nM
4 | CC(C)(F)c1cc(F)cc(Oc2c(Cl)cc(NC(=O)Cc3cccc(S(C)(=O)=O)c3)cc2Cl)c1 [Example 53, N-(3,5-dichloro-4-(3-fluoro-5-(2-fluoropropan-2-yl)phenoxy)phenyl)-2-(3-(methylsulfonyl)phenyl)acetamide] | 40 nM
5 | CC(C)c1cc(F)cc(Oc2c(Cl)ccc(C(=O)NC(C)c3ccc(S(C)(=O)=O)cc3)c2Cl)c1 (centres unmarked) [Example 140] | 9.3 nM
6 | COc1ccc(Oc2c(Cl)cc(NC(=O)Cc3cccnc3)cc2Cl)cc1C(C)(C)O [Example 335] | 722 nM
7 | COc1ccc(Oc2c(Cl)ccc(CNC(=O)Cc3cccc(S(C)(=O)=O)c3)c2Cl)cc1C(C)C [Example 87] | 541 nM
8 | COc1ccc(Oc2c(Cl)cc(N3CC(CNC(=O)CS(C)(=O)=O)OC3=O)cc2Cl)cc1C(C)C (centres unmarked) [Example 253] | 477 nM
9 | CCS(=O)(=O)c1ccc(CC(=O)Nc2cc(Cl)c(Oc3ccc(OC)c(C(C)C)c3)c(Cl)c2)cc1 [Example 307] | 16 nM
10 | COc1ccc(Oc2c(Cl)cc(NC(=O)CN3CCC[C@@H](NS(C)(=O)=O)C3)cc2Cl)cc1C(C)C [Example 171] | 2590 nM
11 | COc1ccc(Oc2c(Cl)cc(NC(=O)CCn3ccnc3)cc2Cl)cc1C(C)C [Example 297] | 44 nM
12 | Cc1ccc(Oc2c(Cl)cc(NC(=O)Cc3cccnc3)cc2Cl)cc1C(C)C [Example 49, N-(3,5-dichloro-4-(3-isopropyl-4-methylphenoxy)phenyl)-2-(pyridin-3-yl)acetamide] | 344 nM
13 | COc1ccc(Oc2c(Cl)ccc(C(=O)n3nc(C)cc3CN)c2Cl)cc1C(C)C [Example 181] | 214 nM
14 | COc1ccc(Oc2c(Cl)cc3[nH]c(Cc4ccccc4)nc3c2Cl)cc1C(C)C [Example 308] | 1280 nM
15 | COc1ccc(Oc2c(Cl)ccc(C(=O)N3CCc4cc(N)ccc4C3)c2Cl)cc1C(C)C [Example 108] | 766 nM
16 | CC(C)c1cc(F)cc(Oc2c(Cl)ccc(C(=O)NCC3CCN(S(=O)(=O)C(C)C)CC3)c2Cl)c1 [Example 116] | 350 nM
17 | CC(C)c1cc(F)cc(Oc2c(Cl)ccc(C(=O)N3CCC4(CC3)CN(S(C)(=O)=O)C4)c2Cl)c1 [Example 112] | 14 nM
18 | CC(C)c1cc(Oc2c(Cl)ccc(C(=O)NCc3ccc(S(C)(=O)=O)cc3)c2Cl)ccc1F [Example 131] | 2.7 nM
19 | CCS(=O)(=O)N1CCCC(CC(=O)Nc2cc(Cl)c(Oc3ccc(OC)c(C(C)C)c3)c(Cl)c2)C1 (centres unmarked) [Example 322] | 126 nM
20 | COc1ccc(Oc2c(Cl)ccc(C(=O)NCc3ccc(S(C)(=O)=O)cc3)c2Cl)cc1C(C)C [Example 79] | 18 nM
21 | COc1ccc(Oc2c(Cl)ccc(CNC(=O)CN3CCNCC3)c2Cl)cc1C(C)C [Example 89] | 4080 nM

Row | SMILES | EC50
22 | COc1ccc(Oc2c(Cl)cc(NC(=O)CN3CCC(NS(C)(=O)=O)CC3)cc2Cl)cc1C(C)C [Example 169] | 93 nM
23 | COC(=O)CCC(=O)Nc1cc(Cl)c(Oc2ccc(OC)c(C(C)C)c2)c(Cl)c1 [Example 295] | 308 nM
24 | COc1ccc(Oc2c(Cl)ccc(C(=O)N3CCN(C(C)=O)CC3)c2Cl)cc1C(C)C [Example 203] | 129 nM
25 | COc1ccc(Oc2c(Cl)ccc(C(=O)N3CCC(N(C)C)CC3)c2Cl)cc1C(C)C [Example 192] | 89 nM
26 | COc1ncc(Oc2c(Cl)cc(NC(=O)CN3CC(NS(C)(=O)=O)C3)cc2Cl)cc1C(C)C [Example 267] | 373 nM
27 | COc1ccc(Oc2c(Cl)cc(NC(=O)Cc3ccc(Cl)nc3)cc2Cl)cc1C(C)C [Example 343] | 67 nM
28 | COc1ccc(Oc2c(Cl)ccc(C(=O)NCCn3ccnc3)c2Cl)cc1C(C)C [Example 19, N-(2-(1H-imidazol-1-yl)ethyl)-2,4-dichloro-3-(3-isomethoxyphenoxy)benzamide] | 396 nM
29 | COc1ncc(Oc2c(Cl)ccc(NC(=O)CC3CCN(S(C)(=O)=O)CC3)c2Cl)cc1C(C)C [Example 129] | 11 nM
30 | CC(c1cc(F)cc(Oc2c(Cl)cc(NC(=O)Cc3ccc(S(C)(=O)=O)cc3)cc2Cl)c1)C(F)(F)F (centres unmarked) [Example 353] | 14 nM
31 | CCNC(=O)Nc1cc(Cl)c(Oc2ccc(OC)c(C(C)C)c2)c(Cl)c1 [Example 306] | 1890 nM
32 | COc1ccc(Oc2c(Cl)ccc(C(=O)NCCO)c2Cl)cc1C(C)C [Example 208] | 508 nM
33 | CC(C)c1cc(Oc2c(Cl)cc(NC(=O)Cc3cccnc3)cc2Cl)ccc1OC(F)(F)F [Example 259] | 356 nM
34 | CC(c1cc(F)cc(Oc2c(Cl)cc(NC(=O)CC3CCN(S(C)(=O)=O)CC3)cc2Cl)c1)C(F)(F)F (centres unmarked) [Example 352] | 15 nM
35 | COc1ccc(Oc2c(Cl)ccc(C(=O)NCC#N)c2Cl)cc1C(C)C [Example 201] | 511 nM
36 | COc1ccc(Oc2c(Cl)cc(NC(=O)CCn3ccc(S(C)(=O)=O)n3)cc2Cl)cc1C(C)C [Example 252] | 264 nM
37 | CC(C)(F)c1cc(F)cc(Oc2c(Cl)ccc(C(=O)NCc3ccc(S(N)(=O)=O)cc3)c2Cl)c1 [Example 337] | 15 nM
38 | COc1ncc(Oc2c(Cl)cc(NC(=O)CC3CCN(S(N)(=O)=O)CC3)cc2Cl)cc1C(C)C [Example 121] | 13 nM
39 | COc1ccc(Oc2c(Cl)cc(NC(=O)Cc3cnccn3)cc2Cl)cc1C(C)C [Example 286] | 316 nM
40 | COc1ccc(Oc2c(Cl)ccc(CNC(=O)CCC3CCN(S(C)(=O)=O)CC3)c2Cl)cc1C(C)C [Example 224] | 732 nM
41 | COc1ccc(Oc2c(Cl)cc(NC(=O)CC3CCN(S(C)(=O)=O)CC3)cc2Cl)cc1C(C)(C)C [Example 255] | 19 nM
42 | COc1ccc(Oc2c(Cl)cc(NC(=O)c3ccc(S(C)(=O)=O)cc3)cc2Cl)cc1C(C)C [Example 293] | 3270 nM

Row | SMILES | EC50
43 | COc1ccc(Oc2c(Cl)cc(NC(=O)CC3CCCNC3)cc2Cl)cc1C(C)C (racemic) [Example 32, N-(3,5-dichloro-4-(3-isopropyl-4-methoxyphenoxy)phenyl)-2-(piperidin-3-yl)acetamide] | 296 nM
44 | COc1ccc(Oc2c(Cl)ccc(C(=O)N3CCN(c4ccccc4)CC3)c2Cl)cc1C(C)C [Example 214] | 434 nM
45 | COc1ccc(Oc2c(Cl)cc(NC(=O)Cc3cccnc3)cc2Cl)cc1CC(C)C [Example 311] | 153 nM
46 | COc1ncc(Oc2c(Cl)ccc(C(=O)N3CCC4(CC3)CN(S(C)(=O)=O)C4)c2Cl)cc1C(C)(C)F [Example 30, (2,4-dichloro-3-((5-(2-fluoropropan-2-yl)-6-methoxypyridin-3-yl)oxy)phenyl)(2-(methylsulfonyl)-2,7-diazaspiro[3.5]nonan-7-yl)methanone] | 216 nM
47 | CNC(=O)c1ccc(CNC(=O)c2ccc(Cl)c(Oc3ccc(OC)c(C(C)C)c3)c2Cl)cc1 [Example 102] | 455 nM
48 | COc1ccc(Oc2c(Cl)cc(NC(=O)C(O)c3cccnc3)cc2Cl)cc1C(C)C (centres unmarked) [Example 247] | 114 nM
49 | COc1ccc(Oc2c(Cl)ccc(C(=O)N3CCN(S(C)(=O)=O)CC3)c2Cl)cc1C(C)C [Example 65] | 69 nM
50 | CC(C)c1cc(F)cc(Oc2c(Cl)ccc(NC(=O)Cc3ccc(S(C)(=O)=O)cc3)c2Cl)c1 [Example 75] | 33 nM
51 | COc1ccc(Oc2c(Cl)ccc(C(=O)NCc3cccc(S(C)(=O)=O)c3)c2Cl)cc1C(C)C [Example 82] | 7600 nM
52 | CC(c1cc(F)cc(Oc2c(Cl)cc(NC(=O)Cc3ccc(S(C)(=O)=O)cc3)cc2Cl)c1)C(F)(F)F (centres unmarked) [Example 354] | 3.5 nM
53 | COc1ccc(Oc2c(Cl)cc(NC(=O)CC3CCN(S(=O)(=O)C4CC4)CC3)cc2Cl)cc1C(C)C [Example 320] | 177 nM
54 | COc1ccc(Oc2c(Cl)cc(NC(=O)OCCn3ccnc3)cc2Cl)cc1C(C)C [Example 235] | 1270 nM
55 | COc1ccc(Oc2c(Cl)cc(N3CC(CNS(C)(=O)=O)OC3=O)cc2Cl)cc1C(C)C (centres unmarked) [Example 254] | 655 nM
56 | COc1ccc(Oc2c(Cl)ccc(CNC(=O)CC3CCN(C(=O)C(F)(F)F)CC3)c2Cl)cc1C(C)C [Example 175] | 345 nM
57 | CC(C)(F)c1cc(Oc2c(Cl)cc(NC(=O)CC3CCN(S(C)(=O)=O)CC3)cc2Cl)cnc1OC(F)F [Example 29, N-(3,5-dichloro-4-((6-(difluoromethoxy)-5-(2-fluoropropan-2-yl)pyridin-3-yl)oxy)phenyl)-2-(1-(methylsulfonyl)piperidin-4-yl)acetamide] | 5.8 nM
58 | COc1ncc(Oc2c(Cl)cc(NC(=O)CC3CCN(S(C)(=O)=O)CC3)cc2Cl)cc1C(C)(C)O [Example 27, N-(3,5-dichloro-4-((5-(2-hydroxypropan-2-yl)-6-methoxypyridin-3-yl)oxy)phenyl)-2-(1-(methylsulfonyl)piperidin-4-yl)acetamide] | 30 nM
59 | COc1ccc(Oc2c(Cl)ccc(C(=O)NC[C@H]3CC[C@H](C(=O)O)CC3)c2Cl)cc1C(C)C [Example 70] | 141 nM
60 | COc1ccc(Oc2c(Cl)ccc(C#N)c2Cl)cc1C(C)C [Example 18, 2,4-dichloro-3-(3-isopropyl-4-methoxyphenoxy)benzonitrile] | 1870 nM
61 | CCS(=O)(=O)N1CCC(CC(=O)Nc2cc(Cl)c(Oc3cnc(OC)c(C(C)C)c3)c(Cl)c2)CC1 [Example 120] | 37 nM
62 | COc1ccc(Oc2c(Cl)cc(NC(=O)Nc3cccnc3)cc2Cl)cc1C(C)C [Example 232] | 285 nM
